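Assay format: 96-well plates, 48-hour exposure. TGI denotes the concentration required for complete inhibition of growth.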
Tests used:
Assay in all cases: NCI-60 cell line screen, 48 h
M14 melanoma = tested on: M14 melanoma
786-0 renal = tested on: 786-0 renal
LXFL 529 NSCLC = tested on: LXFL 529 NSCLC
MOLT-4 leukemia = tested on: MOLT-4 leukemia
TK-10 renal = tested on: TK-10 renal
M19-MEL melanoma = tested on: M19-MEL melanoma
RXF 393 renal = tested on: RXF 393 renal
HT29 colon = tested on: HT29 colon
SW-620 colon = tested on: SW-620 colon
RXF-631 renal = tested on: RXF-631 renal
COLO 205 colon = tested on: COLO 205 colon
HCT-116 colon = tested on: HCT-116 colon
SN12C renal = tested on: SN12C renal
HCC-2998 colon = tested on: HCC-2998 colon
SNB-75 CNS = tested on: SNB-75 CNS
SK-MEL-28 melanoma = tested on: SK-MEL-28 melanoma
U251 CNS = tested on: U251 CNS
LOX IMVI melanoma = tested on: LOX IMVI melanoma
DLD-1 colon = tested on: DLD-1 colon
HL-60(TB) leukemia = tested on: HL-60(TB) leukemia
DMS 114 small cell lung = tested on: DMS 114 small cell lung
ACHN renal = tested on: ACHN renal
HCT-15 colon = tested on: HCT-15 colon
IGROV1 ovarian = tested on: IGROV1 ovarian
HOP-62 NSCLC = tested on: HOP-62 NSCLC
CCRF-CEM leukemia = tested on: CCRF-CEM leukemia
UO-31 renal = tested on: UO-31 renal
UACC-257 melanoma = tested on: UACC-257 melanoma
OVCAR-3 ovarian = tested on: OVCAR-3 ovarian
OVCAR-4 ovarian = tested on: OVCAR-4 ovarian
UACC-62 melanoma = tested on: UACC-62 melanoma
NCI-H23 lung = tested on: NCI-H23 lung
EKVX NSCLC = tested on: EKVX NSCLC
K-562 leukemia = tested on: K-562 leukemia
SK-MEL-5 melanoma = tested on: SK-MEL-5 melanoma
MALME-3M melanoma = tested on: MALME-3M melanoma
XF 498 CNS = tested on: XF 498 CNS
SF-295 CNS = tested on: SF-295 CNS
SNB-19 CNS = tested on: SNB-19 CNS
SK-MEL-2 melanoma = tested on: SK-MEL-2 melanoma
OVCAR-8 ovarian = tested on: OVCAR-8 ovarian
SF-268 CNS = tested on: SF-268 CNS
NCI-H460 lung = tested on: NCI-H460 lung
RPMI-8226 leukemia = tested on: RPMI-8226 leukemia
A498 renal = tested on: A498 renal
SR leukemia = tested on: SR leukemia
KM20L2 colon = tested on: KM20L2 colon
DMS 273 small cell lung = tested on: DMS 273 small cell lung
SF-539 CNS = tested on: SF-539 CNS
A549 NSCLC = tested on: A549 NSCLC
NCI-H226 lung = tested on: NCI-H226 lung
CAKI-1 renal = tested on: CAKI-1 renal
SNB-78 CNS = tested on: SNB-78 CNS
HOP-18 NSCLC = tested on: HOP-18 NSCLC
SK-OV-3 ovarian = tested on: SK-OV-3 ovarian
OVCAR-5 ovarian = tested on: OVCAR-5 ovarian
HOP-92 NSCLC = tested on: HOP-92 NSCLC
KM12 colon = tested on: KM12 colon

SMILES: CC(C)C1CN(C(=O)OCc2ccccc2)C2N1C(=O)C2(C)OCc1ccccc1 (stereo not drawn)
- TGI (M14 melanoma): > 100 µM
- TGI (786-0 renal): > 100 µM
- TGI (LXFL 529 NSCLC): > 100 µM
- TGI (MOLT-4 leukemia): 84 µM
- TGI (TK-10 renal): > 100 µM
- TGI (M19-MEL melanoma): > 100 µM
- TGI (RXF 393 renal): > 100 µM
- TGI (HT29 colon): > 100 µM
- TGI (SW-620 colon): > 100 µM
- TGI (RXF-631 renal): > 100 µM
- TGI (COLO 205 colon): 37.2 µM
- TGI (HCT-116 colon): > 100 µM
- TGI (SN12C renal): > 100 µM
- TGI (HCC-2998 colon): > 100 µM
- TGI (SNB-75 CNS): 59.5 µM
- TGI (SK-MEL-28 melanoma): > 100 µM
- TGI (U251 CNS): > 100 µM
- TGI (LOX IMVI melanoma): > 100 µM
- TGI (DLD-1 colon): > 100 µM
- TGI (HL-60(TB) leukemia): 66.9 µM
- TGI (DMS 114 small cell lung): > 100 µM
- TGI (ACHN renal): > 100 µM
- TGI (HCT-15 colon): > 100 µM
- TGI (IGROV1 ovarian): > 100 µM
- TGI (HOP-62 NSCLC): > 100 µM
- TGI (CCRF-CEM leukemia): > 100 µM
- TGI (UO-31 renal): 68.8 µM
- TGI (UACC-257 melanoma): 96.9 µM
- TGI (OVCAR-3 ovarian): > 100 µM
- TGI (OVCAR-4 ovarian): > 100 µM
- TGI (UACC-62 melanoma): > 100 µM
- TGI (NCI-H23 lung): > 100 µM
- TGI (EKVX NSCLC): > 100 µM
- TGI (K-562 leukemia): > 100 µM
- TGI (SK-MEL-5 melanoma): 29.5 µM
- TGI (MALME-3M melanoma): > 100 µM
- TGI (XF 498 CNS): 33.5 µM
- TGI (SF-295 CNS): > 100 µM
- TGI (SNB-19 CNS): > 100 µM
- TGI (SK-MEL-2 melanoma): 73.5 µM
- TGI (OVCAR-8 ovarian): > 100 µM
- TGI (SF-268 CNS): > 100 µM
- TGI (NCI-H460 lung): > 100 µM
- TGI (RPMI-8226 leukemia): 66.6 µM
- TGI (A498 renal): 95.8 µM
- TGI (SR leukemia): 98 µM
- TGI (KM20L2 colon): > 100 µM
- TGI (DMS 273 small cell lung): > 100 µM
- TGI (SF-539 CNS): > 100 µM
- TGI (A549 NSCLC): > 100 µM
- TGI (NCI-H226 lung): 81 µM

SMILES: CCCCCCCCc1cc2c(O)c(c1)Cc1cc(CCCCCCCC)cc(c1O)Cc1cc(CCCCCCCC)cc(c1O)Cc1cc(CCCCCCCC)cc(c1O)Cc1cc(CCCCCCCC)cc(c1O)Cc1cc(CCCCCCCC)cc(c1O)C2
- TGI (786-0 renal): > 100 µM
- TGI (LXFL 529 NSCLC): > 100 µM
- TGI (CAKI-1 renal): > 100 µM
- TGI (MOLT-4 leukemia): > 100 µM
- TGI (TK-10 renal): > 100 µM
- TGI (SNB-78 CNS): > 100 µM
- TGI (HT29 colon): > 100 µM
- TGI (SW-620 colon): > 100 µM
- TGI (RXF-631 renal): > 100 µM
- TGI (COLO 205 colon): > 100 µM
- TGI (HCT-116 colon): > 100 µM
- TGI (SN12C renal): > 100 µM
- TGI (HCC-2998 colon): > 100 µM
- TGI (SNB-75 CNS): > 100 µM
- TGI (SK-MEL-28 melanoma): > 100 µM
- TGI (HOP-18 NSCLC): > 100 µM
- TGI (U251 CNS): > 100 µM
- TGI (SK-OV-3 ovarian): > 100 µM
- TGI (LOX IMVI melanoma): > 100 µM
- TGI (DLD-1 colon): > 100 µM
- TGI (HL-60(TB) leukemia): > 100 µM
- TGI (DMS 114 small cell lung): > 100 µM
- TGI (ACHN renal): > 100 µM
- TGI (HCT-15 colon): > 100 µM
- TGI (OVCAR-5 ovarian): > 100 µM
- TGI (IGROV1 ovarian): > 100 µM
- TGI (CCRF-CEM leukemia): > 100 µM
- TGI (UO-31 renal): > 100 µM
- TGI (UACC-257 melanoma): > 100 µM
- TGI (UACC-62 melanoma): > 100 µM
- TGI (NCI-H23 lung): > 100 µM
- TGI (K-562 leukemia): > 100 µM
- TGI (MALME-3M melanoma): > 100 µM
- TGI (XF 498 CNS): > 100 µM
- TGI (SF-295 CNS): > 100 µM
- TGI (SNB-19 CNS): > 100 µM
- TGI (HOP-92 NSCLC): > 100 µM
- TGI (SK-MEL-2 melanoma): > 100 µM
- TGI (OVCAR-8 ovarian): > 100 µM
- TGI (SF-268 CNS): > 100 µM
- TGI (KM12 colon): > 100 µM
- TGI (NCI-H460 lung): > 100 µM
- TGI (A498 renal): > 100 µM
- TGI (SR leukemia): > 100 µM
- TGI (KM20L2 colon): > 100 µM
- TGI (SF-539 CNS): > 100 µM
- TGI (A549 NSCLC): > 100 µM
